Data published in US8119773B2, “Compositions and methods for facilitating heme-iron export from cells” (University of Washington, priority 2007, dated 2012).
Ends that are not written are not given here.

Columns and labels:
human FLVCR = molecular target: T1, human FLVCR (Homo sapiens, UniProt Q9Y5Y0); assay: ZnMP export from NRK cells engineered to express human FLVCR, with carrier protein; format: cell-based; conditions: NRK cells expressing human FLVCR; 37° C. for 90 min
T1 construct: expressed in transfected cells; host or cells: NRK (rat kidney) cells engineered to express human FLVCR
T1 sequence (Q9Y5Y0 1-555): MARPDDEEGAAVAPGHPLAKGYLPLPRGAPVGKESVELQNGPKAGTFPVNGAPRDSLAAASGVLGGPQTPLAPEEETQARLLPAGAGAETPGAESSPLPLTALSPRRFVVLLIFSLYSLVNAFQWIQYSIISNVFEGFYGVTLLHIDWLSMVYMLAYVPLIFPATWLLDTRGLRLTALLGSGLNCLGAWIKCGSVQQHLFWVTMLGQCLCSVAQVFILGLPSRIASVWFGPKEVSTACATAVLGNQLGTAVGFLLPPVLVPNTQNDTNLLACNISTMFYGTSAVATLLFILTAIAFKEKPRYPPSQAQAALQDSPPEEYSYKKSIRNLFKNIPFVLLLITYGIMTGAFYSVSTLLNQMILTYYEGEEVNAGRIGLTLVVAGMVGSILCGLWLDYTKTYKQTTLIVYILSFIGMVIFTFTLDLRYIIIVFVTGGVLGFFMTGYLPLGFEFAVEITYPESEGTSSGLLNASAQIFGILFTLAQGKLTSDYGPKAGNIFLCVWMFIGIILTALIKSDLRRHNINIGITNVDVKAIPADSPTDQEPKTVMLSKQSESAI
Excerpt: ZnMP and ^55Fe-hemin uptake and washout studies.
To gain insights into the structure and function of FLVCR, we first studied the export of zinc mesoporphyrin (ZnMP), a fluorescent heme analog that traffics similarly to heme and also blocks heme oxygenase activity.

[1] = heme binding; cited from earlier work
[2] = system: bone marrow-derived macrophages; assay: Ferritin studies in macrophages (ELISA) with or without hepcidin; format: cell-based, mouse; conditions: control and Flvcr-deleted macrophages exposed to FAC (10 μM Fe) 24 hours, washed, then 24 hours with hepcidin (1 ug/ul)
Protocol: FIGS. 4A-4B. FLVCR exports heme-iron from macrophages. (4A) Bone marrow-derived macrophages from control (striped) and mice in which Flvcr was deleted neonatally (black) were incubated in the absence or presence of FAC (10 μM Fe) for 24 or 48 hours, then washed; ferritin was measured by enzyme-linked immunosorbent (ELISA) (i). Cells were incubated with FAC for 24 hours (ii) or with IgG-coated red blood cells (RBC) for 90 min (iii), washed, then incubated for an additional 24 hours with or without hepcidin (1 ug/ul) and ferritin assayed. Data represent ferritin values in macrophages derived from two control and two deleted mice±SEM of triplicate samples per mouse. (4B) Model of macrophage heme-iron recycling.
Murine macrophage culture. Single-cell suspensions of mouse bone marrow were collected from mice 5 days after completing poly(I)-poly(C) treatment. […] Macrophages were defined by flow cytometry (Mac-1^+, f4/80^+, GR-1^−) and analyzed for ZnMP and ^55Fe-hemin export 10-24 days post in vivo deletion (after 5-19 days in culture).
Ferritin studies in macrophages. […] After 24 hrs, the samples were collected in lysis buffer (150 mM NaCl, 10 mM EDTA, 1% Triton X-100, 10 mM Tris pH 7.4), and complete protease inhibitor (Roche Diagnostics Co., Indianapolis, Ind.) and analyzed for ferritin levels as described (S16).

| efficacy in inducing ZnMP export, relative to albumin (human FLVCR) | Substance | Kd [1] | ferritin [2] |
| --- | --- | --- | --- |
| 100 fold | hemopexin [Hpx] | < 1 pM | – |
| – | hepcidin (DTHFPICIFCCGCCHRSKCGMCCKT; ends and bridges not checked; cysteine pairing not given here; UniProt P81172 60-84, looked up) | – | increase equivalently |
